Measurements from patent publication US9708340B2, “Urea derivatives and their use as fatty-acid binding protein (FABP) inhibitors” (Hoffmann-La Roche Inc., priority 2013, dated 2017).
Read-outs that look alike come from different tables or passages of the source.

Legend:
[1] = target: human FABP4 (huFABP4) (Homo sapiens (Human), UniProt P15090); experiment: Tb TR-FRET assay, binding of Bodipy labeled fatty acid to His6 tagged huFABP4; conditions: read-out: IC50 h-fabp4-ecoli-r
[2] = target: human FABP5 (huFABP5) (Homo sapiens (Human), UniProt Q01469); experiment: Tb TR-FRET assay, binding of Bodipy labeled fatty acid to His6 tagged huFABP5; conditions: read-out: IC50 h-fabp5-ecoli-r
human FABP5 (huFABP5), sequence (Q01469 whole entry): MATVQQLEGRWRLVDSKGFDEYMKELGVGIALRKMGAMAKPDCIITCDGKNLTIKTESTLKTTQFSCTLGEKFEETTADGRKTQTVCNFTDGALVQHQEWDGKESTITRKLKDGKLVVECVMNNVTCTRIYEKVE

[3] = 50 nM FABP protein, […] Bodipy labeled fatty acid

human FABP4 (huFABP4), sequence (P15090 whole entry): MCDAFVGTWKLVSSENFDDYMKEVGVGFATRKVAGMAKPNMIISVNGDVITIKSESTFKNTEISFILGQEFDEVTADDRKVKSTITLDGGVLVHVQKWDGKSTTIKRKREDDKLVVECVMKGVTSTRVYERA

O=C(O)[C@H]1CCCN1C(=O)Nc1cc(C(F)(F)F)ccc1-c1ccccc1 [Example 13, (R)-1-(4-(trifluoromethyl)biphenyl-2-ylcarbamoyl)pyrrolidine-2-carboxylic acid]
IC50 [1, 3]: 3.95 µM | IC50 [2, 3]: > 50 µM

O=C(O)C1SCCN1C(=O)Nc1ccccc1-c1ccccc1 (stereo not shown) [Example 7, 3-(Biphenyl-2-ylcarbamoyl)-thiazolidine-2-carboxylic acid]
IC50 [1, 3]: 9.82 µM | IC50 [2, 3]: > 50 µM

O=C(O)[C@H]1CCCN1C(=O)Nc1cc(Cl)ccc1-c1ccc(F)cc1 [Example 54, (R)-1-(4-chloro-4′-fluorobiphenyl-2-ylcarbamoyl)pyrrolidine-2-carboxylic acid]
IC50 [1, 3]: 0.06 µM | IC50 [2, 3]: > 29.6 µM

COc1cc(Cl)cc(NC(=O)N2CC[C@@H]2C(=O)O)c1-c1ccc(F)cc1 [Example 64, (R)-1-(4-chloro-4′-fluoro-6-methoxybiphenyl-2-ylcarbamoyl)azetidine-2-carboxylic acid]
IC50 [1, 3]: 0.02 µM | IC50 [2, 3]: 6.66 µM

C=CCc1cc(Cl)cc(NC(=O)N2CCC[C@@H]2C(=O)O)c1-c1ccccc1 [Example 23, (R)-1-(6-allyl-4-chlorobiphenyl-2-ylcarbamoyl)pyrrolidine-2-carboxylic acid]
IC50 [1, 3]: 0.11 µM | IC50 [2, 3]: 1.29 µM

O=C(O)[C@H]1CCCN1C(=O)Nc1cc(Cl)ccc1Oc1ccccc1 [Example 5, (R)-1-(5-chloro-2-phenoxyphenylcarbamoyl)pyrrolidine-2-carboxylic acid]
IC50 [1, 3]: 7.41 µM | IC50 [2, 3]: > 50 µM

N#Cc1cc(Cl)cc(NC(=O)N2CCC[C@@H]2C(=O)O)c1-c1ccccc1 [Example 25, (R)-1-(4-chloro-6-cyanobiphenyl-2-ylcarbamoyl)pyrrolidine-2-carboxylic acid]
IC50 [1, 3]: 0.19 µM | IC50 [2, 3]: 15 µM

O=C(O)[C@H]1CCN1C(=O)Nc1cc(Cl)ccc1-c1ccc(F)cc1F [Example 63, (R)-1-(4-chloro-2′,4′-difluorobiphenyl-2-ylcarbamoyl)azetidine-2-carboxylic acid]
IC50 [1, 3]: 0.03 µM | IC50 [2, 3]: > 50 µM

O=C(O)[C@H]1CCCN1C(=O)Nc1ccccc1Oc1ccccc1 [Example 3, (R)-1-(2-phenoxyphenylcarbamoyl)pyrrolidine-2-carboxylic acid]
IC50 [1, 3]: 11.7 µM | IC50 [2, 3]: > 50 µM

O=C(O)[C@H]1CCCN1C(=O)Nc1cc(Cl)ccc1-c1ccncc1 [Example 58, (R)-1-(5-chloro-2-(pyridin-4-yl)phenylcarbamoyl)pyrrolidine-2-carboxylic acid]
IC50 [1, 3]: 2 µM | IC50 [2, 3]: > 50 µM

O=C(O)[C@H]1CCN1C(=O)Nc1cc(Cl)ccc1-c1cccc(F)c1 [Example 38, (R)-1-(4-chloro-3′-fluorobiphenyl-2-ylcarbamoyl)azetidine-2-carboxylic acid]
IC50 [1, 3]: 0.03 µM | IC50 [2, 3]: > 50 µM

O=C(O)[C@H]1CCCN1C(=O)Nc1ccccc1Cc1ccccc1 [Example 4, (R)-1-(2-benzylphenylcarbamoyl)pyrrolidine-2-carboxylic acid]
IC50 [1, 3]: 3.34 µM | IC50 [2, 3]: > 50 µM

O=C(O)[C@H]1CCN1C(=O)Nc1cc(Cl)ccc1-c1ccccc1F [Example 37, (R)-1-(4-chloro-2′-fluorobiphenyl-2-ylcarbamoyl)azetidine-2-carboxylic acid]
IC50 [1, 3]: 0.03 µM | IC50 [2, 3]: > 50 µM

CC1(C(=O)O)CCCN1C(=O)Nc1ccccc1-c1ccccc1 (stereo not shown) [Example 15, 1-(biphenyl-2-ylcarbamoyl)-2-methylpyrrolidine-2-carboxylic acid]
IC50 [1, 3]: 0.86 µM | IC50 [2, 3]: > 50 µM

O=C(O)[C@H]1CCN1C(=O)Nc1cc(Cl)ccc1-c1ccc(F)cc1 [Example 29, (R)-1-(4-chloro-4′-fluorobiphenyl-2-ylcarbamoyl)azetidine-2-carboxylic acid]
IC50 [1, 3]: 0.03 µM | IC50 [2, 3]: > 50 µM

O=C(O)[C@H]1CCCN1C(=O)Nc1c(-c2ccccc2)sc2ccccc12 [Example 21, (R)-1-(2-phenylbenzo[b]thiophen-3-ylcarbamoyl)pyrrolidine-2-carboxylic acid]
IC50 [1, 3]: 0.67 µM | IC50 [2, 3]: > 50 µM

O=C(O)[C@H]1CCCN1C(=O)Nc1cc(Cl)cc(-c2ccccc2)c1-c1ccccc1 [Example 19, (R)-1-(5′-Chloro-[1,1′;2′,1″]terphenyl-3′-ylcarbamoyl)-pyrrolidine-2-carboxylic acid]
IC50 [1, 3]: 0.5 µM | IC50 [2, 3]: 1.22 µM

NC(=O)c1cccc(-c2ccc(Cl)cc2NC(=O)N2CCC[C@@H]2C(=O)O)c1 [Example 56, (R)-1-(3′-carbamoyl-4-chlorobiphenyl-2-ylcarbamoyl)pyrrolidine-2-carboxylic acid]
IC50 [1, 3]: 11.1 µM | IC50 [2, 3]: > 50 µM

O=C(O)[C@@H]1CCN1C(=O)Nc1cc(Cl)ccc1-c1ccccc1 [Example 27, (S)-1-(4-chlorobiphenyl-2-ylcarbamoyl)azetidine-2-carboxylic acid]
IC50 [1, 3]: 1.22 µM | IC50 [2, 3]: > 50 µM

COc1ccc(-c2ccc(Cl)cc2NC(=O)N2CCC[C@@H]2C(=O)O)cc1 [Example 60, (R)-1-(4-chloro-4′-methoxybiphenyl-2-ylcarbamoyl)pyrrolidine-2-carboxylic acid]
IC50 [1, 3]: 3.45 µM | IC50 [2, 3]: > 50 µM

O=C(O)C1CCCCN1C(=O)Nc1ccccc1-c1ccccc1 (stereo not shown) [Example 1, 1-(Biphenyl-2-ylcarbamoyl)-piperidine-2-carboxylic acid]
IC50 [1, 3]: 8.06 µM | IC50 [2, 3]: > 50 µM

O=C(O)[C@H]1CCCN1C(=O)Nc1cc(F)ccc1-c1ccccc1 [Example 16, (R)-1-(4-fluorobiphenyl-2-ylcarbamoyl)pyrrolidine-2-carboxylic acid]
IC50 [1, 3]: 1.07 µM | IC50 [2, 3]: > 50 µM

O=C(Nc1ccccc1-c1ccccc1)N1CCCC1(C(=O)O)c1ccccc1 (stereo not shown) [Example 6, 1-(Biphenyl-2-ylcarbamoyl)-2-phenyl-pyrrolidine-2-carboxylic acid]
IC50 [1, 3]: 0.62 µM | IC50 [2, 3]: > 50 µM

N#Cc1ccc(-c2ccccc2)c(NC(=O)N2CCC[C@@H]2C(=O)O)c1 [Example 20, (R)-1-(4-cyanobiphenyl-2-ylcarbamoyl)pyrrolidine-2-carboxylic acid]
IC50 [1, 3]: 10.5 µM | IC50 [2, 3]: > 50 µM

O=C(O)[C@H]1CCCN1C(=O)Nc1cc(Cl)ccc1C1=CCCCC1 [Example 57, (R)-1-[5-chloro-2-(cyclohexen-1-yl)phenylcarbamoyl]pyrrolidine-2-carboxylic acid]
IC50 [1, 3]: 1.1 µM | IC50 [2, 3]: > 50 µM

O=C(O)[C@H]1CCN1C(=O)Nc1cc(Cl)c(F)cc1-c1ccccc1 [Example 30, (R)-1-(4-chloro-5-fluorobiphenyl-2-ylcarbamoyl)azetidine-2-carboxylic acid]
IC50 [1, 3]: 0.02 µM | IC50 [2, 3]: 40.1 µM

O=C(O)[C@@H]1[C@H]2C[C@H]2CN1C(=O)Nc1ccccc1-c1ccccc1 (racemic) [Example 9, (1SR,2SR,5RS)-3-(Biphenyl-2-ylcarbamoyl)-3-aza-bicyclo[3.1.0]hexane-2-carboxylic acid]
IC50 [1]: 9.1 µM | IC50 [2]: > 50 µM

O=C(O)[C@H]1CCCN1C(=O)Nc1cc(Cl)ccc1-c1cccc(Cl)c1 [Example 55, (R)-1-(3′,4-dichlorobiphenyl-2-ylcarbamoyl)pyrrolidine-2-carboxylic acid]
IC50 [1, 3]: 0.77 µM | IC50 [2, 3]: > 50 µM

O=C(O)[C@H]1CCCN1C(=O)Nc1ccc(Cl)cc1-c1ccccc1 [Example 2, (R)-1-(5-chlorobiphenyl-2-ylcarbamoyl)pyrrolidine-2-carboxylic acid]
IC50 [1, 3]: 2.04 µM | IC50 [2, 3]: 21 µM
